# Target: T1, human CGRP receptor (Homo sapiens, UniProt O60894+Q16602)
# T1 construct: SK-N-MC cells are cultivated in “Dulbecco's modified Eagle medium”; endogenous in cells; host or cells: SK-N-MC cells (membrane homogenate)
# Assay: Binding studies with SK-N-MC cells (expressing the human CGRP receptor)
# Details: SK-N-MC cell membranes, displacement of 125I-iodotyrosyl-CGRP
# Procedure: A. Binding Studies with SK-N-MC Cells (Expressing the Human CGRP Receptor)
# SK-N-MC cells are cultivated in “Dulbecco's modified Eagle medium”. The medium is removed from confluent cultures. The cells are washed twice with PBS buffer (Gibco 041-04190 M), detached by the addition of PBS buffer mixed with 0.02% EDTA, and isolated by centrifuging. After resuspension in 20 ml of “Balanced Salts Solution” [BSS (in mM): NaCl 120, KCl 5.4, NaHCO3 16.2, MgSO4 0.8, NaHPO4 1.0, CaCl2 1.8, D-glucose 5.5, HEPES 30, pH 7.40] the cells are centrifuged twice at 100×g and resuspended in BSS. After the number of cells has been determined, the cells are homogenised using an Ultra-Turrax and centrifuged for 10 minutes at 3000×g. The supernatant is discarded and the pellet is recentrifuged in Tris buffer (10 mM Tris, 50 mM NaCl, 5 mM MgCl2, 1 mM EDTA, pH 7.40) enriched with 1% bovine serum albumin and 0.1% bacitracin, and resuspended (1 ml/1000000 cells). The homogenised product is frozen at −80° C. The membrane preparations are stable for more than 6 weeks under these conditions.
# After thawing, the homogenised product is diluted 1:10 with assay buffer (50 mM Tris, 150 mM NaCl, 5 mM MgCl2, 1 mM EDTA, pH 7.40) and homogenised for 30 seconds with an Ultra-Turrax. 230 μl of the homogenised product are incubated for 180 minutes at ambient temperature with 50 pM ^125I-iodotyrosyl-Calcitonin-Gene-Related Peptide (Amersham) and increasing concentrations of the test substances in a total volume of 250 μl. The incubation is ended by rapid filtration through GF/B glass fibre filters treated with polyethyleneimine (0.1%) using a cell harvester. The protein-bound radioactivity is measured using a gamma counter. Non-specific binding is defined as the bound radioactivity after the presence of 1 μM human CGRP-alpha during incubation.
# The concentration binding curves are analysed using computer-aided non-linear curve fitting.
# T1 sequence (Q16602 23-461): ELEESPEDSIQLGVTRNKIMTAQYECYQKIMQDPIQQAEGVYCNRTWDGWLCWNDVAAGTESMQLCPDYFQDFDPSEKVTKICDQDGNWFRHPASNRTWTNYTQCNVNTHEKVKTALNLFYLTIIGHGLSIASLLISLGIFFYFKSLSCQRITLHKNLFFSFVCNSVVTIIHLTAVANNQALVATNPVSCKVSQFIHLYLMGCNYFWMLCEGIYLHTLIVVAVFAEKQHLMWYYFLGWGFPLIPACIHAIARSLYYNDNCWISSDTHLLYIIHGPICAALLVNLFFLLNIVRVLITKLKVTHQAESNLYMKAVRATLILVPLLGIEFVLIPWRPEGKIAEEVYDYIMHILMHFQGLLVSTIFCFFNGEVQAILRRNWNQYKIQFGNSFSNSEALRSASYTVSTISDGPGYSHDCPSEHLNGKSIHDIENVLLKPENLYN
# T1 sequence (O60894 27-148): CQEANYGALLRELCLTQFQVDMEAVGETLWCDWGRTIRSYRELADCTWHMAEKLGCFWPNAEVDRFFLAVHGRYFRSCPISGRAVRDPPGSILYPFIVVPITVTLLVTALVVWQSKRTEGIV
row,SMILES,Ki
1,Cc1cc(C(=O)c2cc(N3CCC(n4c(=O)[nH]c5ncccc54)CC3)ncn2)cc2oc(=O)[nH]c12 [(1)],0.4 nM
2,Cc1cc(C(=O)c2cc(N3CCC(n4nc(-c5ccccc5)[nH]c4=O)CC3)ncn2)cc2oc(=O)[nH]c12 [(3)],4 nM
3,Cc1cc(C(=O)c2cc(N3CCC(n4c(=O)[nH]c5c6ccccc6ncc54)CC3)ncn2)cc2oc(=O)[nH]c12 [(4)],1 nM
